Consider one molecule from patent US20250345370A1, “MICROBIAL LIBERATION OF N-METHYLSEROTONIN FROM ORANGE FIBER” (Washington University, priority 2022, published 2025).

Molecules are shown by their SMILES.

One experiment concerns the target T1, 5-HT2A receptor (Rattus norvegicus, UniProt P14842).
T1 construct: increase glucose uptake in cultured rat muscle via its agonist activity on the 5-HT2A receptor; host or cells: cultured rat muscle
Particulars: cultured rat muscle, agonist activity on the 5-HT2A receptor; cited from earlier work.

A further experiment addresses 5-Htr7 (Homo sapiens, UniProt P34969). The conditions noted are these: in vitro studies; cited from earlier work.
Experiment [1] is described as follows: Tissue metabolites (liver glycogen and precursors, colonic glutamate) in germ-free mice given N-methylserotonin. The format is in vivo, germ-free C57BL/6J mice. On the procedure: For experiments involving administration of N-methylserotonin to germ-free mice, a stock solution of the compound (100 mg/mL, Santa Cruz Biotechnologies) was prepared in sterile water and filter sterilized ([…]; Nalgene). The outer surface of tubes containing the stock solution was sterilized with Clidox (Pharmacal) and the tubes were introduced into gnotobiotic isolators using standard procedures. The stock solution was then diluted in darkened glass water bottles (Ancare) in order to administer doses of 1 mg/kg/day or 50 mg/kg/day (based on an experimentally determined average consumption of 5 mL of water/day/mouse). Every four days, bottles were replaced with new ones containing fresh N-methylserotonin. Each of the three arms of the experiment, including the control arm where unsupplemented drinking water was administered, consisted of 5 mice.
Fecal samples and body weights were collected weekly, while food and water intake were monitored daily by comparing pellet mass in the food hopper and the volume of water in water bottles at the beginning and end of a 24 h period and dividing these values by the number of mice per cage. All animals were euthanized between 0830 h and 0930 h without prior fasting. Luminal contents from the proximal and distal halves of the small intestine, the cecum and the colon, host tissues (liver, epididymal fat pads, gastrocnemius muscle, the distal quarter of the small intestine (ileum), cecum and entire colon) plus serum were collected, flash frozen in liquid nitrogen and stored at −80° C. prior to analyses.
Other metabolites—Tissue (at least 10 mg) was placed in a reinforced 2 mL tube. A 20 times weight volume of extraction solvent was added (40% acetonitrile, 40% methanol, 20% water) and the tissue was disrupted as described herein. Samples were centrifuged at 12,000×g for 10 minutes at 4° C. A 200 μL aliquot of the resulting supernatant was transferred to a 2 mL glass tube and dried in a speed vacuum at room temperature (25° C.) for two hours. The dry extract was reconstituted in 100 μL of 90% water/10% acetonitrile and stored at −4° C. prior to injection; 5 μL was injected into a 1290 Infmity II UHPLC system coupled to a 6470 Triple Quadrupole LC/MS system equipped with a Jet Stream electrospray ionization source (Agilent Technologies). Chromatographic separation was performed on an Agilent ZORBAX Extend C18, […], 1.8 μm column, using the following gradient conditions: mobile phase A, 10 mM tributylamine and 15 mM acetic acid in 3% methanol (v/v); mobile phase B, 10 mM tributylamine and 15 mM acetic acid in 100% methanol; 0% solvent B (0-2 minutes); 0-20% solvent B (2-7.5 minutes); 20-45% solvent B (7.5-13 minutes); 45-99% solvent B (13-20 minutes); 99-0% solvent B (20-22 minutes) at a flow rate of 0.25 mL/minute. […] Transitions were taken from the Agilent Metabolomics dMRM Database.
Glutamate is known to […] Arntl when directly applied to tissue slices. Knockout of the Per3 homolog Per2 reduces expression of the glutamate transporter (Eaatl, Slc1A3) and uptake of glutamate in the brain. These observations raise the possibility that one way that N-methylserotonin might influence colonic circadian regulators is through its effects on glutamate levels in this tissue.

5-Htr7, sequence (P34969 whole entry): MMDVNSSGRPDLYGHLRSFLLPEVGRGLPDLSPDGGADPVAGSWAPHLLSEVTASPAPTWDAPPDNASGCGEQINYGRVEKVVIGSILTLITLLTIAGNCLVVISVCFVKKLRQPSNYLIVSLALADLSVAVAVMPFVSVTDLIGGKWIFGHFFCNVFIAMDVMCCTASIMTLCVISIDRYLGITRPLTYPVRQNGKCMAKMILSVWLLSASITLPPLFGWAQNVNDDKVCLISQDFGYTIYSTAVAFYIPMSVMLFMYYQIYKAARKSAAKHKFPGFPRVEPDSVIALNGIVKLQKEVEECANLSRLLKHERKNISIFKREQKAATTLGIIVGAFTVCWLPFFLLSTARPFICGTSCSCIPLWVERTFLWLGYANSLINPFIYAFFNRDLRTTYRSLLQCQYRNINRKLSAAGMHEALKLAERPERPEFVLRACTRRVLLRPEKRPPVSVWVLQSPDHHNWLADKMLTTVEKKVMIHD
T1 sequence (P14842 whole entry): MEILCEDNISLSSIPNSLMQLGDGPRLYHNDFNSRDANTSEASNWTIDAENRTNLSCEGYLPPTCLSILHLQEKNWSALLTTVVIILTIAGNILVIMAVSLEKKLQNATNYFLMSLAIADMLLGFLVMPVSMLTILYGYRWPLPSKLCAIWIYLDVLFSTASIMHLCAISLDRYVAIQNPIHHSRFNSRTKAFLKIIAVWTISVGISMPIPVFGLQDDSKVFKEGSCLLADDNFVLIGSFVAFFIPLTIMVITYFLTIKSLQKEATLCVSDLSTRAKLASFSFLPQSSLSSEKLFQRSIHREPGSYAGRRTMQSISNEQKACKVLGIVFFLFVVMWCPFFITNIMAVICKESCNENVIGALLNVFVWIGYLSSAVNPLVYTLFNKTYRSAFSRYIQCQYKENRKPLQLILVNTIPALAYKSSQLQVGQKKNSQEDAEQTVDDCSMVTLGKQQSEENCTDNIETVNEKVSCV

Consider `CNCCc1c[nH]c2ccc(O)cc12` [N-methylserotonin], for which the glucose uptake entry on 5-HT2A receptor was “able to increase glucose uptake”. Moreover, the binding entry at 5-Htr7 is “binds”. In experiment [1] (1 mg/kg/day), the “liver glucose-6-phosphate” value is “the lower dose did not”, the liver glycogen result is “the lower dose did not”, the liver uridine result is listed as “the lower dose did not” and the liver uridine monophosphate entry was “the lower dose did not”. Also, in experiment [1] (50 mg/kg/day), the “liver glucose-6-phosphate” value is recorded as “statistically significant decrease”, the liver glycogen entry is given as “statistically significant increases”, the liver uridine entry was “statistically significant decreases” and the liver uridine monophosphate entry is listed as “statistically significant decreases”. The “glutamate levels in colonic tissue” value in experiment [1] (50 mg/kg/day, untreated controls 11±0.9) was determined as 21±1.4 ng/mg tissue.
